Reference: PMC10285300, “Abscisic acid mimic-fluorine derivative 4 alleviates water deficit stress by regulating ABA-responsive genes, proline accumulation, CO2 assimilation, water use efficiency and better nutrient uptake in tomato plants” (Frontiers in Plant Science, 2023)

Legend:
[1] = molecular target: T1, ΔN-HAB1 (Arabidopsis thaliana, UniProt Q9CAJ0); assay: phosphatase activity, […] nm, […] min; format: biochemical; conditions: 25 mM pNPP, 10 mM MnCl2, Tris pH 8.0
T1 sequence (Q9CAJ0 172-511 limits assumed): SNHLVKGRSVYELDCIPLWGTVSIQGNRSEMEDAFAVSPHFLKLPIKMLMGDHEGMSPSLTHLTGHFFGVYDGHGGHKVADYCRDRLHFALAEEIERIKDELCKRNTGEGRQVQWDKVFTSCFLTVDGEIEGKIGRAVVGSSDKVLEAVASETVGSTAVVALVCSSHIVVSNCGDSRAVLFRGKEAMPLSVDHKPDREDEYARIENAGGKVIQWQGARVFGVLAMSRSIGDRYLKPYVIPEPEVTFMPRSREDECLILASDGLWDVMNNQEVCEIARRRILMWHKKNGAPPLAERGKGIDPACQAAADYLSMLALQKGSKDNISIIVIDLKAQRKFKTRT

[2] = molecular target: T2, Sl08g076960 (Solanum lycopersicum, UniProt A0A3Q7HTY9); assay: PP2C inhibition assay (pNPP, […] nm), receptor-dependent inhibition of HAB1; format: biochemical; conditions: agonist; deltaN-HAB1 1 uM, receptor 2 uM, 25 mM pNPP, 10 mM MnCl2, Tris pH 8.0
T2 construct: gene LOC101268417; with Protein phosphatase 2C 16 (Arabidopsis thaliana)
T2 sequence (A0A3Q7HTY9 1-231): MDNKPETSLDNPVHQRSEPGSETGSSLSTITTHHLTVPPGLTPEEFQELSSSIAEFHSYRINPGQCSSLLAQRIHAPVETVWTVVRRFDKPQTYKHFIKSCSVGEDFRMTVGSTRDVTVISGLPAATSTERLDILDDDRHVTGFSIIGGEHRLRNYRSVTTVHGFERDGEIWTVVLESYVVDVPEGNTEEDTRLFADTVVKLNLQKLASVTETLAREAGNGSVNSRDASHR
T2 sequence (Q9CAJ0 172-511 partner limits assumed): T1 sequence (Q9CAJ0 172-511 limits assumed)

Row | SMILES | phosphatase activity, 405 nm, 20 min [1] | PP2C activity at 1 or 10 μM [2]
1 | O=[N+]([O-])c1ccc(OP(=O)(O)O)cc1 [p-nitrophenyl phosphate] | Phosphatase activity was measured using p-nitrophenyl phosphate (pNPP) as a substrate | –
2 | CCCN1C(=O)CCc2cc(NS(=O)(=O)Cc3c(F)c(F)c(C)c(F)c3F)ccc21 [AMF4, N-(2-oxo-1-propyl-1,2,3,4-tetrahydroquinolin-6-yl)-1-(2,3,5,6-tetrafluoro-4-methylphenyl) methanesulfonamide] | – | both PYL1-like tomato receptors were activated by AMF4, resulting in the inhibition of the PP2C
